Data from paper PMC11357446, “Searching for Novel HDAC6/Hsp90 Dual Inhibitors with Anti-Prostate Cancer Activity: In Silico Screening and In Vitro Evaluation” (Pharmaceuticals, 2024).

What was measured:
Assay type in all cases: cell-based, human
[1] = test system: acetylated tubulin (Ac-Tub) in PC-3 cells; experiment: Western blot of acetylated α-Tubulin in PC-3 cells; settings: 24 h at GI50 concentration, normalized with Tubulin
Experimental: (§1) To assess whether the observed antiproliferative activity of the selected compounds was a consequence of HDAC6-targeting, we examined the effect of the cell treatments on the expression levels of acetylated tubulin (Ac-Tub), a well-known HDAC6 target. LNCaP and PC-3 cells were treated with the tested compounds at their GI50 concentrations, and SDS-PAGE and western blot were performed. In addition, the acetylation levels of histone H3, which are mainly regulated by HDAC1, were also evaluated in order to exclude potential class I-HDAC off-target activities. We used Tubastatin-A and Geldanamycin as reference controls for cellular effects resulting from HDAC6- and Hsp90-inhibition, respectively. The results in Figure 2 show a significant increase in α-Tubulin acetylation in LNCaP cells after treatments with compounds 8, 11 and 18. Indeed, these compounds triggered a 2.9-, 5.1-, and 2.5-fold increase, respectively, compared to the control (DMSO). […].
(§2) Figure 2 Western blot analysis and relative quantification of the expression levels of acetylated-Tubulin (Ac-TUB), acetylated H3 (Ac-H3), and HSP70 in LNCaP (A,B) and PC-3 (C,D) cells treated for 24 h at GI50 concentration. […]
Cell treatment. […] Protein quantitation was performed with Pierce Detergent Compatible Bradford Assay (#23246, Thermo Fisher Scientific, MA, USA), and equivalent amounts of cellular extracts were resolved by SDS-PAGE, transferred to PVDF or Nitrocellulose membrane with Trans-Blot Turbo Transfer System (Bio-Rad, Hercules, CA, USA), and immunoblotted with the following primary antibodies, diluted 1:1000 in 1× TBS with 1 mg/mL BSA: Anti-Histone H3 (#PA5-16183, Invitrogen, Thermo Fisher Scientific, MA, USA), Anti-acetylated histone H3 (#sc-518011, Santa Cruz Biotechnology, Inc., Dallas, TX, USA), Anti-Tubulin (#E-AB-20073, Elabscience, Houston, TX, USA), Anti-acetylated α-tubulin (#sc-23950, Santa Cruz), and Anti-HSP70 (#4872S, Cell Signaling Technology, Inc., Danvers, MA, USA). […]

[2] = test system: acetylated H3 (Ac-H3) in PC-3 cells; experiment: Western blot of acetylated histone H3 in PC-3 cells; settings: 24 h at GI50 concentration
Experimental: as §1
as §2, with “concentration. Tubastatin-A was used as HDAC6-specific positive control, Geldanamycin (GELDA) as HSP90-specific positive control, and SAHA as pan-HDAC inhibitor.” for “concentration.”

[3] = test system: acetylated H3 (Ac-H3) in LNCaP cells; experiment: Western blot of acetylated histone H3 in LNCaP cells; settings: 24 h at GI50 concentration
Experimental: as §1
as §2, with “concentration. Tubastatin-A was used as HDAC6-specific positive control, Geldanamycin (GELDA) as HSP90-specific positive control, and SAHA as pan-HDAC inhibitor.” for “concentration.”

α-Tubulin acetylation, fold induction versus DMSO control [1]	SMILES	induction of H3 acetylation [2]	induction of H3 acetylation [3]
7.3 fold	O=C(c1cc(OCc2ccccc2)ccc1O)N1CCC(c2noc(C(F)(F)F)n2)CC1 [Compound 8]	no remarkable induction of H3 acetylation	no remarkable induction of H3 acetylation
5.5 fold	CC(C)[C@H](C(=O)NCc1ccc(C(=O)NO)cc1)N1Cc2ccccc2C1=O [Compound 11]		
4.9 fold	O=C(Nc1ncccc1O)c1ccc(-c2noc(C(F)(F)F)n2)cc1 [Compound 18]		
